Data on 17 compounds can be found in US9415049B2, “Heteroaryl compounds and uses thereof” (Celgene Avilomics Research, Inc., priority 2013, dated 2016).

In assay [1] the target is T1, human recombinant full-length Btk enzyme (Homo sapiens, UniProt Q06187). Description: Omnia Continuous Read Kinase Assay, Btk inhibition. It is filed as biochemical. The arrangement: human recombinant full-length Btk enzyme. Conditions: 30 minutes pre-incubation at 27° C.; 0.5 nM to 10 μM. An excerpt: The following Example describes testing certain compounds according to the invention for inhibition of BTK activity. The Omnia® Continuous Read Kinase Assay uses an unnatural amino acid chelation enhanced fluorophore (Sox; 8-hydroxy-5-(N,N-dimethylsulfonamido)-2 methylquinoline) incorporated into a kinase-specific peptide substrate to characterize Btk enzyme kinetics and inhibition. Following Btk-mediated phosphorylation, a sensitive, highly quantifiable increase in real-time fluorescence is noted based upon the ability of chelated Mg2+ to form a bridge between Sox and the phosphate group on a tyrosine residue of the peptide substrate. The Omnia® continuous read assay was performed essentially as described by the vendor (Invitrogen; Carlsbad, Calif.). First, a 10× stock of human recombinant full-length Btk enzyme was prepared in Kinase Reaction Buffer. 5 μL of the 10× enzyme was pre-incubated with 0.5 μL of serially diluted compound prepared in 50% DMSO, in a 384-well microtiter plate for 30 minutes at 27° C. 1.13×ATP and the Tyr5-Sox conjugated peptide substrate were prepared in 1× Kinase Reaction Buffer. Kinase reactions were initiated by the addition of 45 μL of the 1.13×ATP-Sox peptide substrate master mix and monitored every 30 to 90 seconds for 60 minutes at λex360/λem485 in a Synergy plate reader. The IC50 values for each compound assayed were determined from test concentrations of 0.5 nM to 10 μM in half-log intervals performed in duplicate.
T1 sequence (Q06187 whole entry): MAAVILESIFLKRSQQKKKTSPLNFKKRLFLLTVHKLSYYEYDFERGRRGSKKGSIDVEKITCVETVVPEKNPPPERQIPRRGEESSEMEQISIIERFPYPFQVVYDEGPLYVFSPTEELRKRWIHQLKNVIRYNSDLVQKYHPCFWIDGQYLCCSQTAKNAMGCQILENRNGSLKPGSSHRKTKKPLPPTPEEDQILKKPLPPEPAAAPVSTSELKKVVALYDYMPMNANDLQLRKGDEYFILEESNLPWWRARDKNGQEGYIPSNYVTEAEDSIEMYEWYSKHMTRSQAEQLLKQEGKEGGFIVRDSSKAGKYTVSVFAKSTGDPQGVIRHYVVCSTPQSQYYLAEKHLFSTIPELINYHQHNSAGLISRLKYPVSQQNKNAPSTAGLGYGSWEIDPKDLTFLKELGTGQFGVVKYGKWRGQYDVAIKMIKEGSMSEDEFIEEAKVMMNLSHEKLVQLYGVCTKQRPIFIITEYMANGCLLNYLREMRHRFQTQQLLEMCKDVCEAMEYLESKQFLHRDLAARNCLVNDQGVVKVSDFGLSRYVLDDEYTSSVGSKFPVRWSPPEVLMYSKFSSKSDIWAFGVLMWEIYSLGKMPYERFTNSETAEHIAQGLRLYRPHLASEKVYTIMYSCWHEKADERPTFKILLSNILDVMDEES
At the conclusion of each assay, progress curves from each well were examined for linear reaction kinetics and fit statistics (R2, 95% confidence interval, absolute sum of squares) using GraphPad software (GraphPad Prism version 5.01; San Diego, Calif.). Initial velocity (0 minutes to ˜30+ minutes) from each reaction was determined from the slope of a plot of relative fluorescence units versus time (minutes). Using control normalized % inhibition data, plots were constructed against inhibitor concentration to estimate IC50 from log [inhibitor] versus response using a variable slope model in GraphPad. The compound numbers correspond to the compound numbers in Table 1.

Another assay deals with T2, BTK (Homo sapiens, UniProt Q06187).
T2 construct: endogenous in cells; host or cells: Ramos cells
T2 sequence (Q06187 whole entry): as above
Description: Btk target site occupancy, covalent probe ELISA in Ramos cells. To be noted: 1 hour at 37° C., 0.09-200 nM, read-out: Ramos cell EC50 (nM), BTK occupancy. The assay is classed as cell-based. The method, then:
A covalent probe shown below was used in an ELISA assay to determine occupancy of the target BTK by certain compounds according to the invention.
Ramos cells were incubated in serum-free RPMI medium for 1 hour (˜2×10^6 cells/mL in 2 mL). Test compounds were diluted from a 10 mM DMSO stock solution, to achieve a final concentration of 0.09, 0.27, 0.82, 2.47, 7.42, 22.2, 66, and 200 nM. Cells were then incubated for 1 hour at 37° C. Following incubation, cells were spun at 1100 RPM for 5 minutes then washed in 200 μL of chilled PBS. Following the wash, cells were spun at 1100 RPM for 5 minutes. The supernatant was aspirated and then cells were resuspended in lysis buffer containing protease and phosphatase inhibitors. This was followed by centrifugation for 15 minutes at 14000 RPM at 4° C. Supernatant was transferred to a fresh tube. Lysates were stored at −80° C. until assayed.
Samples were thawed and mixed well by vortexing for 5 seconds. 60 μL of each sample was added into the 96-well mixing plate followed by addition of 60 μL of covalent probe solution (2 μM probe in PBS+0.05% Tween-20+1% BSA; 1:2 sample dilution) to each well containing sample. An adhesive cover was then placed on the plate followed by mixing of the plate on a shaker for 1 hour at room temperature. The streptavidin plate was pre-washed 3 times with PBS+0.05% Tween-20. 50 μL of the standards, QCs, and samples were then transferred from the mixing plate to the streptavidin plate. The plate was covered with an adhesive cover and mixed while shaking for 1 hour at room temperature. A 1:1000 dilution of the primary anti-Btk antibody (catalog #611116, Becton Dickinson; Franklin Lakes, N.J.) in PBS+0.05% Tween-20+0.5% BSA was prepared. The streptavidin plate was washed 3 times with PBS+0.05% Tween-20 and 50 μL/well of diluted anti-Btk antibody was then pipetted into the streptavidin plate. The plate was covered and incubated for 1 hour at room temperature. A 1:5000 dilution of secondary antibody (goat anti-mouse-HRP, catalog #62-6520, Zymed-Invitrogen; Carlsbad, Calif.) in PBS+0.05% Tween-20+0.5% BSA was prepared. The streptavidin plate was again washed 3 times with PBS+0.05% Tween-20 and 50 μL/well of diluted secondary antibody was pipetted into the streptavidin plate. The plate was covered and incubated for 1 hour at room temperature. The streptavidin plate was again washed 3 times with PBS+0.05% Tween-20 followed by the addition of 100 μL of TMB solution to each well. The plate was then read on a Synergy^2 plate reader at OD 650 nm until the OD maximum reached 1.0. This was followed by the addition of 100 μL of the Stop Solution. The plate was then read at OD 450 nm. A human recombinant Btk protein standard curve (11.7-3000 pg/μL) was plotted using a 4 parameter curve fit in GenS software (Version 1.05.11; Biotek; Winooski, Vt.;). The sample ODs were read against the standard curve to calculate free protein amounts.
Data were generated as ODs on an ELISA plate reader (Synergy^2, BioTek; Winooski, Vt.). Uninhibited Btk captured by the biotinylated covalent probe was quantitated and normalized to untreated control samples. Results were expressed as % Btk occupancy. EC50 values were generated using a 4 parameter curve fit analysis in GraphPad Prism version 5.0.
In general terms: An ELISA detects its analyte on a solid surface through an enzyme-linked reagent.

In assay [2] the target is T1, human recombinant full-length Btk enzyme. Description: Covalent bonding assay, intact protein MALDI mass spectrometry. The assay is classed as binding. The arrangement: The full-length recombinant human Btk protein; purchased Invitrogen Lot #619547Q (catalogue number not given). Conditions: percentage of total protein covalently modified after one hour incubation, 10-fold excess of compound, room temperature. The procedure:
The following example describes testing certain compounds to determine whether they covalently bind to BTK. The full-length recombinant human Btk protein (Lot #619547Q; 0.35 mg/mL) was obtained from Invitrogen (Carlsbad, Calif.). Btk protein was diluted 2:3 in phosphate-buffered saline and stock concentration (10 mM) of compound was diluted 1:115 in 50% DMSO.
For all compounds, 1 μL of diluted compound was added to 5 μL of diluted protein. These mixtures were then incubated for 60 minutes at a 10-fold excess of compound to protein under room temperature (˜24° C.) conditions.
At the end of the incubation, 5 μL aliquots of the samples were diluted with 15 μL of 0.2% TFA prior to micro C4 ZipTipping® directly onto the MALDI target plate using sinapinic acid as the desorption matrix (10 mg/mL in 0.2% TFA:Acetonitrile 50:50). Samples were immediately analyzed on an ABSciex 4800 MALDI TOF-TOF mass spectrometer.
For intact protein mass measurement, the mass spectrometer was set in linear mode using a pulsed extraction setting of 81,500. Bovine serum albumin (BSA; Sigma, St Louis, Mo.) was used as the standard to calibrate the instrument. These values correspond to the percentage of total protein covalently modified by the tested compound after one hour incubation.

Each structure is given as a SMILES string. Where only a bound is given, the exact number is not on record here.

As a reminder, the IC50 is the midpoint of a concentration-inhibition curve. Take `COCCOc1ccc(Nc2ncc(F)c(Nc3cccc(N4OCCC4=O)c3)n2)cc1` [Compound I-27]: the IC50 in assay [1] fell in the range of 101 to 500 nM.

For orientation: EC50 means the midpoint of the concentration-response curve. As to `C=CC(=O)Nc1cccc(Nc2nc(Nc3ccc(OCC(=O)O)cc3)ncc2F)c1` [Compound I-2, 2-(4-((4-((3-acrylamidophenyl)amino)-5-fluoropyrimidin-2-yl)amino)phenoxy)acetic acid], the EC50 at BTK was above 200 nM. Also, in assay [1], the IC50 is at most 10 nM.

Consider `O=C(Nc1cccc(Nc2nc(Nc3ccc(OCCO)cc3)ncc2F)c1)C1CO1` (stereo not shown) [Compound I-22, N-(3-((5-fluoro-2-((4-(2-hydroxyethoxy)phenyl)amino)pyrimidin-4-yl)amino)phenyl)oxirane-2-carboxamide], for which the EC50 on BTK is below 50 nM. Besides, in assay [1], the IC50 is at most 10 nM.

As for `C=CC(=O)Nc1cccc(Nc2nc(Nc3ccc(OCCOC)cc3O)ncc2F)c1` [Compound I-14, N-(3-((5-fluoro-2-((2-hydroxy-4-(2-methoxyethoxy)phenyl)amino)pyrimidin-4-yl)amino)phenyl)acrylamide], the IC50 in assay [1] is at most 10 nM.

For the compound `C=CC(=O)Nc1cccc(Nc2nc(N(C)c3ccc(OCCO)cc3)ncc2F)c1` [Compound I-25, N-(3-((5-fluoro-2-((4-(2-hydroxyethoxy)phenyl)(methyl)amino)pyrimidin-4-yl)amino)phenyl)acrylamide], the IC50 in assay [1] was in the range of 101 to 500 nM.

Turning to `C=CC(=O)N(C)c1cccc(Nc2nc(Nc3ccc(OCCO)cc3)ncc2F)c1` [Compound I-23, N-(3-((5-fluoro-2-((4-(2-hydroxyethoxy)phenyl)amino)pyrimidin-4-yl)amino)phenyl)-N-methylacrylamide], the EC50 at BTK was below 100 nM. Moreover, the IC50 in assay [1] is at most 10 nM.

In the case of `COCCOc1ccc(Nc2ncc(F)c(Nc3cccc(NC(=O)C4CO4)c3)n2)cc1` (stereo not shown) [Compound I-19, N-(3-((5-fluoro-2-((4-(2-methoxyethoxy)phenyl)amino)pyrimidin-4-yl)amino)phenyl)oxirane-2-carboxamide], on BTK, the EC50 is below 10 nM. For the same compound, the half-maximal inhibitory concentration (IC50) in assay [1] was at most 10 nM. In addition, the MS % modification result in assay [2] is “A (>70% modification)”.

On to `COCCOc1ccc(Nc2ncc(F)c(Nc3cccc(NC(=O)CCO)c3)n2)cc1` [Compound I-26, N-(3-((5-fluoro-2-((4-(2-methoxyethoxy)phenyl)amino)pyrimidin-4-yl)amino)phenyl)-3-hydroxypropanamide], for which the half-maximal inhibitory concentration (IC50) in assay [1] was above 501 nM.

Regarding `O=C(Nc1cccc(Nc2nc(Nc3ccc(OCCO)cc3)ncc2F)c1)C(O)CO` (stereo not shown) [Compound I-5, N-(3-((5-fluoro-2-((4-(2-hydroxyethoxy)phenyl)amino)pyrimidin-4-yl)amino)phenyl)-2,3-dihydroxypropanamide], the IC50 in assay [1] was in the range of 101 to 500 nM. In addition, in assay [2], the MS % modification entry is reported as “C (<30% modification)”.

Turning to `O=C(Nc1cccc(Nc2nc(Nc3ccc(O)cc3)ncc2F)c1)C(O)CO` (stereo not shown) [Compound I-6, N-(3-((5-fluoro-2-((4-hydroxyphenyl)amino)pyrimidin-4-yl)amino)phenyl)-2,3-dihydroxypropanamide], the IC50 in assay [1] fell in the range of 101 to 500 nM. The MS % modification result in assay [2] is reported as “C (<30% modification)”.

Regarding `C=CC(=O)Nc1cccc(N(C)c2nc(Nc3ccc(OCCO)cc3)ncc2F)c1` [Compound I-24], the half-maximal effective concentration (EC50) on BTK is below 10 nM. In addition, the IC50 in assay [1] was at most 10 nM.

On to `C=CC(=O)Nc1ccc(O)c(Nc2nc(Nc3ccc(OCCOC)cc3)ncc2F)c1` [Compound I-15, N-(3-((5-fluoro-2-((4-(2-methoxyethoxy)phenyl)amino)pyrimidin-4-yl)amino)-4-hydroxyphenyl)acrylamide], for which the IC50 in assay [1] fell in the range of 11 to 100 nM.

On to `COCCOc1ccc(Nc2ncc(F)c(Nc3cccc(NC(=O)C(O)CO)c3)n2)cc1` (stereo not shown) [Compound I-4, N-(3-((5-fluoro-2-((4-(2-methoxyethoxy)phenyl)amino)pyrimidin-4-yl)amino)phenyl)-2,3-dihydroxypropanamide], for which the IC50 in assay [1] fell in the range of 101 to 500 nM. The MS % modification result in assay [2] is recorded as “C (<30% modification)”.

Turning to `C=CC(=O)Nc1cc(O)cc(Nc2nc(Nc3ccc(OCCOC)cc3)ncc2F)c1` [Compound I-16, N-(3-((5-fluoro-2-((4-(2-methoxyethoxy)phenyl)amino)pyrimidin-4-yl)amino)-5-hydroxyphenyl)acrylamide], in assay [1], the IC50 was at most 10 nM.

`C=CC(=O)Nc1cccc(Nc2nc(Nc3ccc(OCCOC)cc3)ncc2F)c1O` [Compound I-18, N-(3-((5-fluoro-2-((4-(2-methoxyethoxy)phenyl)amino)pyrimidin-4-yl)amino)-2-hydroxyphenyl)acrylamide]: the EC50 at BTK is below 50 nM. For the same compound, the half-inhibitory concentration (IC50) in assay [1] is at most 10 nM.

Regarding `C=CC(=O)Nc1cc(Nc2nc(Nc3ccc(OCCOC)cc3)ncc2F)ccc1O` [Compound I-17, N-(5-((5-fluoro-2-((4-(2-methoxyethoxy)phenyl)amino)pyrimidin-4-yl)amino)-2-hydroxyphenyl)acrylamide], in assay [1], the IC50 was at most 10 nM.

As for `C=CC(=O)Nc1cccc(Nc2nc(Nc3ccc(OCCOC)c(O)c3)ncc2F)c1` [Compound I-13, N-(3-((5-fluoro-2-((3-hydroxy-4-(2-methoxyethoxy)phenyl)amino)pyrimidin-4-yl)amino)phenyl)acrylamide], at BTK, the EC50 is below 50 nM. Also, the IC50 in assay [1] was at most 10 nM.
